The structures appear in SMILES notation. In brackets after ≈: the same amount, converted by molar mass.

In the test the test system is KB. Briefly: Cytotoxicity against human KB cells. It counts as functional. The following applies: read-out: ED50 (the source's name).
For the molecule `COc1ccc(-c2oc3c(OC)c(OC)c(OC)c(O)c3c(=O)c2OC)cc1` [5-HYDROXYAURANETIN], the EC50 amounted to 1.8 µg/mL (≈ 4.63 µM).

As to `COc1ccc(-c2cc(=O)c3c(O)c(OC)c(OC)cc3o2)cc1OC`, the EC50 was more than 100 µg/mL. On to `COc1cc([C@@H]2c3cc4c(cc3C[C@H]3COC(=O)[C@@H]32)OCO4)cc(OC)c1OC` [DESOXYPODOPHYLLOTOXIN], for which the EC50 is 0.032 µg/mL (≈ 0.0803 µM).

For the molecule `c1cc2c(cc1[C@H]1OC[C@H]3[C@@H]1CO[C@@H]3c1ccc3c(c1)OCO3)OCO2` [SESAMIN], the EC50 was more than 100 µg/mL.

Take `COc1ccc(-c2cc(=O)c3c(O)c(OC)c(OC)c(OC)c3o2)cc1` [GARDENIN B]: the EC50 was determined as 6 µg/mL (≈ 16.7 µM). For the molecule `COc1ccc(-c2cc(=O)c3c(O)c(OC)c(OC)cc3o2)cc1O` [EUPATORIN], the EC50 was more than 50 µg/mL.

The record behind these values is ChEMBL document CHEMBL1158655, “Plant anticancer agents. IX. Constituents of Hyptis tomentosa” (1979).
